The values below come from PubChem BioAssay (NCI).

Holding throughout (test): DTP human tumour cell line panel, 48 h
For assay [1], the system named is SK-MEL-28 melanoma.
The test system of assay [2] is SF-268 CNS.
Assay [3] has as its system OVCAR-4 ovarian.
The test system of assay [4] is UACC-257 melanoma.
Assay [5] relates to LOX IMVI melanoma.
In assay [6] the test system is TK-10 renal.
The test system of assay [7] is SW-620 colon.
For assay [8], the system named is NCI-H522 lung.
The subject of assay [9] is MDA-MB-435.
Assay [10] has as its system PC-3 prostate.

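All cell lines were grown in 96-well plates and treated with compound for 48 hours. Here, GI50 denotes the concentration required for 50% inhibition of growth. TGI is the concentration that stops growth completely.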

As to `CC(=O)Nc1ccc(/C=C2\N=C(c3ccccc3)OC2=O)cc1`, the concentration for total growth inhibition (TGI) in assay [1], in [2], in assay [3], in assay [4], in assay [5] and in [6] was over 100 µM in each case. In addition, in assay [7], the TGI is over 100 µM.
Consider `COc1ccc2c(c1)[n+](=O)c(C(=O)C/C(=N/NC(=O)C[N+](C)(C)C)C(=O)Nc1cccc(C)c1C)c(C)n2O`, for which the concentration for total growth inhibition (TGI) in [1], in assay [8], in assay [2], in assay [3], in assay [4] and in [7] was over 100 µM in each case.
Take `CN(C)C(=O)NC(=S)N(C)C`: the TGI in assay [1], in assay [8], in assay [2], in assay [3], in assay [4] and in [6] was over 100 µM throughout. In assay [7], this molecule gave a total growth inhibition concentration (TGI) of over 100 µM.
On to `COC(=O)C1C(=O)O[C@@H](c2ccc(OC)c(OC)c2OC)C1C(=O)OC` (mixture of isomers), for which the TGI in assay [1], in assay [8], in assay [2], in assay [3], in [4] and in assay [5] was over 100 µM each time. Further, the total growth inhibition concentration (TGI) in assay [6] and in assay [7] was over 100 µM in each case.
With `COC(=O)C1(C)CC2C(C)(CCC3(C)C4=CC=C5C(=CC(=O)C(O)=C5C)C4(C)CCC23C)CC1O` (configuration not stated), the TGI in assay [1] was determined as 2.1 µM; in assay [8], 0.54 µM; in assay [2], 2.63 µM; in assay [3], 3.4 µM; in assay [4], 4.28 µM; in assay [9] it was 2.31 µM. Besides, the TGI in [6] is 1.59 µM; in [10], 3.12 µM.
With `O=C(N/C(=C\c1ccccc1Cl)c1nc2ccccc2[nH]1)c1ccccc1`, the TGI in assay [1] was over 100 µM; in [8] it was 72.5 µM; in assay [2] it was over 100 µM; in assay [3] it was over 100 µM; in assay [6], over 100 µM; in assay [7] it was over 100 µM.
On to `c1ccc(-c2n(Cc3ccc4ccccc4c3)cc[n+]2Cc2ccc3ccccc3c2)cc1`, for which the GI50 is 1.14 µM in assay [1]; 1.02 µM in assay [9]; 1.34 µM in assay [6]; 1.08 µM in [7]; 1.22 µM in assay [10]. The TGI in assay [1] is 2.53 µM; in [9], 2.24 µM; in assay [6], 2.83 µM; in assay [7], 2.48 µM; in [10], 2.68 µM.
Turning to `CCN(CC)c1ccc2nc3c4ccccc4c(=O)cc-3n(-c3ccccc3)c2c1`, the GI50 was 2.05 µM in [1]; 2.85 µM in assay [2]; 1.2 µM in [3]; 1.12 µM in assay [4]; 0.899 µM in [9]; 1.62 µM in [5]. In addition, the GI50 in [6] was 1.77 µM; in assay [7], 2.89 µM; in assay [10] it was 1.9 µM. Also, the concentration for total growth inhibition (TGI) in assay [1] came to 7.07 µM; in assay [2], 12.9 µM; in assay [3] it was 15.1 µM; in assay [4], 2.9 µM; in assay [9], 3.46 µM; in assay [5], 3.72 µM. Moreover, the TGI in assay [6] is 5.63 µM; in assay [7], 13.6 µM; in assay [10], 7.58 µM.
Regarding `Cc1ccc(Cl)cc1NC(=O)c1cc2ccccc2cc1O`, the 50% growth inhibitory concentration (GI50) in assay [8] was 0.231 µM; in [2], 0.426 µM; in [3] it was 0.409 µM; in assay [4], 0.277 µM; in assay [5] it was 0.213 µM; in [6] it was 0.948 µM. For the same molecule, the figures for the GI50 in [7] and in assay [10] were 0.414 µM and 0.289 µM, respectively. The TGI in assay [8] was 0.719 µM; in assay [2] it was over 32.6 µM; in assay [3], over 100 µM; in assay [4] it was 0.909 µM; in assay [5] it was 1.49 µM; in [6] it was 4.46 µM. For the same molecule, in [7], the concentration for total growth inhibition (TGI) was over 100 µM.
As to `CC(=O)[CH-]C(=O)c1ccccc1.CC(=O)[CH-]C(=O)c1ccccc1.CC(C)CCC[C@H](C)C1CCC2[C@@H]3CC=C4C[C@@H]([O-])CC[C@]4(C)C3CC[C@@]21C.CC(C)CCC[C@H](C)C1CCC2[C@@H]3CC=C4C[C@@H]([O-])CC[C@]4(C)C3CC[C@@]21C.Cl.[Ti+4]` (some centres not stated), the GI50 in assay [1], in [8], in assay [2], in [3], in [4] and in [5] was over 25 µM in each case. Besides, the GI50 in assay [6] and in [7] was over 25 µM each time. Besides, the TGI in assay [1], in assay [8], in assay [2], in [3], in assay [4] and in assay [5] was over 25 µM in each case. Further, the TGI in [6] and in [7] was over 25 µM throughout.
For the molecule `Cc1cc(=O)n(-c2c(C)cccc2Cl)c(/C=C(\O)c2ccncc2)n1`, the TGI in [1], in [8], in assay [2], in assay [3], in assay [4] and in [5] was over 100 µM each time. Further, the TGI in [6] and in assay [7] was over 100 µM throughout.
`CC(=O)OCC1OC(OCc2ccccc2)C(Br)C(OC(C)=O)C1OC(C)=O` (configuration not stated): the TGI in assay [1], in [8], in assay [2], in [3], in assay [4] and in assay [5] was over 100 µM in each case. The concentration for total growth inhibition (TGI) in [6] and in assay [7] was over 100 µM throughout.
